Each structure is given as a SMILES string. Structures can show the parent of a compound that is named as a salt. Where two headings read alike, the source gives them in different places.

Format in all cases: biochemical
One assay has as its target T1, human LSD1(171-852) (Homo sapiens, UniProt O60341).
T1 construct: to give hLSD1(171-852) purified product; made in house; host or cells: Escherichia coli C43(DE3) pLysS
As to the kind of experiment: Measurement of LSD1 inhibitory activity (time-resolved fluorescence, biotin-histone H3 mono methylated K4 peptide).

The target in another assay is T2, MAO-B (Homo sapiens, UniProt P27338).
T2 construct: purchased Sigma-Aldrich Co. LLC
T2 sequence (P27338 1-520): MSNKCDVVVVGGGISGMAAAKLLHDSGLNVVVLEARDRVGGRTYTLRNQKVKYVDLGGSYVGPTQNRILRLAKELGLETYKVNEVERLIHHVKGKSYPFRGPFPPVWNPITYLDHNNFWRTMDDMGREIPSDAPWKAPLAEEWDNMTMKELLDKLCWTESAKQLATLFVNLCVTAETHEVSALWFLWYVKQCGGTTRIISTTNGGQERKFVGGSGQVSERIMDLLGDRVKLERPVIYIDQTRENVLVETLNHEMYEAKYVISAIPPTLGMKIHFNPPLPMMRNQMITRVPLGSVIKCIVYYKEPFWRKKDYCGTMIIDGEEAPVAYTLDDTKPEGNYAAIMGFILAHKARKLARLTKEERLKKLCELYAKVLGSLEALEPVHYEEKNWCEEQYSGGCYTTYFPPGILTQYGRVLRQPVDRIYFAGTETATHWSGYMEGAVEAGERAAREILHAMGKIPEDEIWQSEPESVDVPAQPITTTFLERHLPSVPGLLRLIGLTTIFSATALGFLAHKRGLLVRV
As to the kind of experiment: Measurement of MAO-B inhibitory activity (MAO-Glo Assay). The method, boiled down: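 Percent inhibition was calculated from luciferin-based luminescence, corrected with a blank lacking enzyme and a control lacking compound. The reaction ran 60 min at room temperature after adding MAO substrate (16 µM as added). This followed a 10 min compound–enzyme preincubation in HEPES pH 7.5 buffer.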

The target in a further assay is T3, MAO-A (Homo sapiens, UniProt P21397).
T3 construct: purchased Sigma-Aldrich Co. LLC
T3 sequence (P21397 1-527): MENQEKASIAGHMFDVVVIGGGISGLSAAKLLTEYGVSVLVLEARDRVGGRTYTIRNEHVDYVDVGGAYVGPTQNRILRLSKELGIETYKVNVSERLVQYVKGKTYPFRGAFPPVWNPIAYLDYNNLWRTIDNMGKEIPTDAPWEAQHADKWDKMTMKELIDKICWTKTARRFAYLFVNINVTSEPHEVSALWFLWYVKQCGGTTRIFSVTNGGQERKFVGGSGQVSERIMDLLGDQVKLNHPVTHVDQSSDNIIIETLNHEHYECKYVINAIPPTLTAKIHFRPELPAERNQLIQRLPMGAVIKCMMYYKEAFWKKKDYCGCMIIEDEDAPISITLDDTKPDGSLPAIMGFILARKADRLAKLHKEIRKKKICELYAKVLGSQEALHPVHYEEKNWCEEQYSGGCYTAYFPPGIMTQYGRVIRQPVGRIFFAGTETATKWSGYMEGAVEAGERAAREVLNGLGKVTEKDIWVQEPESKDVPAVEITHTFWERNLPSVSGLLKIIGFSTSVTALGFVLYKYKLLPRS
As to the kind of experiment: Measurement of MAO-A inhibitory activity (MAO-Glo Assay). The gist of the method: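 MAO-A (400 ng) was pre-incubated with compound 10 min at room temperature in 100 mM HEPES pH 7.5, 5% glycerol, then MAO substrate (160 μM stock) added for 60 min. Luciferin detection reagent, 20 min, luminescence; % inhibition against no-compound control minus no-enzyme blank.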

In the case of `CC(=O)N1CCCc2ccc(C(=O)Nc3ccc([C@@H]4C[C@H]4NCC4CC4)cc3)cc2C1` (relative stereo) [Example 134, 2-acetyl-N-(4-{trans-2-[(cyclopropyl-methyl)amino]-cyclopropyl}-phenyl)-2,3,4,5-tetrahydro-1H-2-benzazepine-8-carboxamide], the IC50 at human LSD1(171-852) (read-out: LSD1 IC50 value) was below 0.1 µM; on MAO-B, above 10 µM; on MAO-A it was above 10 µM.
For the molecule `CS(=O)(=O)Nc1ccc(C(=O)Nc2ccc([C@@H]3C[C@H]3NCC3CC3)cc2)cc1` (relative stereo) [Example 135, N-(4-{trans-2-[(cyclopropylmethyl)amino]cyclopropyl}phenyl)-4-[(methylsulfonyl)amino]benzamide hydrochloride], the IC50 was 0.1 µM on human LSD1(171-852) (read-out: LSD1 IC50 value), above 10 µM at MAO-B and above 10 µM on MAO-A.
For `CS(=O)(=O)Nc1cccc(C(=O)Nc2ccc([C@@H]3C[C@H]3NCC3CC3)cc2)c1` (relative stereo) [Example 136, N-(4-{trans-2-[(cyclopropylmethyl)amino]cyclopropyl}phenyl)-3-[(methylsulfonyl)amino]benzamide hydrochloride], the IC50 was below 0.1 µM at human LSD1(171-852) (read-out: LSD1 IC50 value), above 10 µM against MAO-B and above 10 µM at MAO-A.
Consider `O=C(Nc1ccc([C@@H]2C[C@H]2NCC2CC2)cc1)c1cc(-c2ccccc2)cs1` (relative stereo) [Example 137, N-(4-{trans-2-[(cyclopropylmethyl)amino]cyclopropyl}phenyl)-4-phenylthiophene-2-carboxamide hydrochloride], for which the IC50 was below 0.1 µM on human LSD1(171-852) (read-out: LSD1 IC50 value), above 10 µM at MAO-B and 4.2 µM against MAO-A.
Take `O=C(Nc1ccc([C@@H]2C[C@H]2NCC2CC2)cc1)c1ccc(-c2ncccn2)cc1` (relative stereo) [Example 138, N-(4-{trans-2-[(cyclopropylmethyl)amino]cyclopropyl}phenyl)-4-(pyrimidin-2-yl)benzamide hydrochloride]: the IC50 on human LSD1(171-852) (read-out: LSD1 IC50 value) is below 0.1 µM; against MAO-B, above 10 µM; at MAO-A, above 10 µM.
For `O=C(Nc1ccc([C@@H]2C[C@H]2NCC2CC2)cc1)c1cccc(-c2ncccn2)c1` (relative stereo) [Example 139, N-(4-{trans-2-[(cyclopropylmethyl)amino]cyclopropyl}phenyl)-3-(pyrimidin-2-yl)benzamide hydrochloride], the values for the IC50 at human LSD1(171-852) (read-out: LSD1 IC50 value), against MAO-B and against MAO-A were below 0.1 µM, above 10 µM and 8.2 µM, respectively.
`O=C(Nc1ccc([C@@H]2C[C@H]2NCC2CC2)cc1)c1ccccc1` (relative stereo) [Example 140, N-(4-{trans-2-[(cyclopropylmethyl)amino]cyclopropyl}phenyl)benzamide hydrochloride]: the IC50 on human LSD1(171-852) (read-out: LSD1 IC50 value) is below 0.1 µM; against MAO-B, above 10 µM; on MAO-A, above 10 µM.
For the molecule `O=C(Nc1ccc([C@@H]2C[C@H]2NCC2CC2)cc1)C1CCCCC1` (relative stereo) [Example 141, N-(4-{trans-2-[(cyclopropylmethyl)amino]cyclopropyl}phenyl)-cyclohexanecarboxamide hydrochloride], the IC50 on human LSD1(171-852) (read-out: LSD1 IC50 value) is below 0.1 µM; on MAO-B it was above 10 µM; on MAO-A it was above 10 µM.
With `CN(C)c1ccccc1CN[C@@H]1C[C@H]1c1ccc(NC(=O)c2cccc(C(F)(F)F)c2)cc1` (relative stereo) [Example 142, N-{4-[trans-2-{[2-(dimethylamino)benzyl]amino}cyclopropyl]phenyl}-3-(trifluoromethyl)benzamide hydrochloride], the IC50 at human LSD1(171-852) (read-out: LSD1 IC50 value) is 0.1 µM; against MAO-B it was above 10 µM; on MAO-A, above 10 µM.
Take `O=C1c2ccccc2C(=O)N1c1ccc([C@@H]2C[C@H]2NCC2CC2)cc1` (relative stereo) [Example 143, 2-(4-{trans-2-[(cyclopropylmethyl)amino]cyclopropyl}phenyl)-1H -isoindole-1,3(2H)-dione hydrochloride]: the IC50 on human LSD1(171-852) (read-out: LSD1 IC50 value) was below 0.1 µM; on MAO-B it was above 10 µM; on MAO-A it was 4.5 µM.
The corresponding values for `O=C1c2ccccc2CN1c1ccc([C@@H]2C[C@H]2NCC2CC2)cc1` (relative stereo) [Example 144, 2-(4-{trans-2-[(cyclopropylmethyl)amino]cyclopropyl}phenyl)isoindolin-1-one hydrochloride] are 0.2 µM, above 10 µM and above 10 µM.
On to `NS(=O)(=O)c1cccc(C(=O)Nc2ccc([C@@H]3C[C@H]3NCC3CC3)cc2)c1` (relative stereo) [Example 145, N-(4-{trans-2-[(cyclopropylmethyl)amino]cyclopropyl}phenyl)-3-sulfamoylbenzamide hydrochloride], for which the IC50 at human LSD1(171-852) (read-out: LSD1 IC50 value) is below 0.1 µM; against MAO-B, above 10 µM; on MAO-A, above 10 µM.
As for `O=C(Nc1ccc([C@@H]2C[C@H]2NCC2CC2)cc1)c1cccc(Cn2ccnc2)c1` (relative stereo) [Example 146, N-(4-{trans-2-[(cyclopropylmethyl)amino]cyclopropyl}phenyl)-3-(1H-imidazol-1-ylmethyl)benzamide hydrochloride], the results for the IC50 at human LSD1(171-852) (read-out: LSD1 IC50 value), on MAO-B and at MAO-A were below 0.1 µM, above 10 µM and 6.7 µM, respectively.
With `O=C(Nc1ccc([C@@H]2C[C@H]2NCC2CC2)cc1)c1cccc(Cn2cncn2)c1` (relative stereo) [Example 147, N-(4-{trans-2-[(cyclopropylmethyl)amino]cyclopropyl}phenyl)-3-(1H-1,2,4-triazol-1-ylmethyl)benzamide hydrochloride], the results for the IC50 on human LSD1(171-852) (read-out: LSD1 IC50 value), at MAO-B and against MAO-A were below 0.1 µM, above 10 µM and above 10 µM, respectively.
As for `O=C(Nc1ccc([C@@H]2C[C@H]2NCC2CC2)cc1)c1cccc(-n2ccnc2)c1` (relative stereo) [Example 148, N-(4-{trans-2-[(cyclopropylmethyl)amino]cyclopropyl}phenyl)-3-(1H-imidazol-1-yl)benzamide hydrochloride], the IC50 on human LSD1(171-852) (read-out: LSD1 IC50 value) was below 0.1 µM; at MAO-B it was above 10 µM; against MAO-A, 8.3 µM.
Consider `CN1C2CCC1CC(N[C@@H]1C[C@H]1c1ccc(NC(=O)c3cccc(C(F)(F)F)c3)cc1)C2` (relative stereo) [Example 149, N-(4-{trans-2-[(8-methyl-8-azabicyclo[3.2.1]oct-3-yl)amino]cyclopropyl}phenyl)-3-(trifluoromethyl)benzamide dihydrochloride], for which the figures for the IC50 at human LSD1(171-852), against MAO-B and at MAO-A were below 0.1 µM, above 10 µM and above 10 µM, respectively.
As for `CN1CCC(N[C@@H]2C[C@H]2c2ccc(N(C)C(=O)c3cccc(C(F)(F)F)c3)cc2)CC1` (relative stereo) [Example 150, N-methyl-N-(4-{trans-2-[(1-methylpiperidin-4-yl)amino]cyclopropyl}phenyl)-3-(trifluoromethyl)benzamide dihydrochloride], the IC50 on human LSD1(171-852) (read-out: LSD1 IC50 value) is below 0.1 µM; against MAO-B, above 10 µM; against MAO-A it was above 10 µM.
For the molecule `O=C(Nc1ccc([C@@H]2C[C@H]2NC2CCS(=O)(=O)CC2)cc1)c1cccc(C(F)(F)F)c1` (relative stereo) [Example 151, N-(4-{trans-2-[(1,1-dioxidotetrahydro-2H-thiopyran-4-yl)amino]cyclopropyl}phenyl)-3-(trifluoromethyl)benzamide hydrochloride], the IC50 at human LSD1(171-852) (read-out: LSD1 IC50 value) is below 0.1 µM; on MAO-B, above 10 µM; against MAO-A, above 10 µM.

By IC50 is commonly meant the midpoint of a concentration-inhibition curve.

These data come from patent US9682925B2, “Cyclopropaneamine compound” (TAKEDA PHARMACEUTICAL COMPANY LIMITED, priority 2011, dated 2017).
